Test results from patent publication US7705016B2, “Regulation of food intake by modulation of long-chain fatty acyl-CoA levels in the hypothalamus” (Albert Einstein College of Medicine of Yeshiva University, priority 2003, dated 2010).

Assays:
Glc-6-Pase mRNA = assay: Hepatic Glc-6-Pase mRNA after ICV OA (northern blot); format: in vivo, rat
Description: (§1) Northern Blot Analysis. Total RNA was isolated from hypothalami and liver with Trizol (Invitrogen Corp., California, USA). NPY, Glc-6-Pase or PEPCK expression was measured by northern blot analysis. Hypothalamic RNA was analyzed using probes for prepro-NPY and β-actin. To assess the effect of ICV OA on the expression of hepatic enzymes, total RNA was isolated from freeze-clamped liver tissues from rats subjected to insulin clamp studies. Glc-6-Pase and PEPCK cDNA were obtained as previously described (Combs et al., 2001; Massillon et al., 1996; 1998). Probes were labeled with [α-^32P] dCTP using a random primer kit (Stratagene). Quantification was performed by scanning densitometry, normalizing for β-actin signal and 18S ribosomal RNA to correct for loading variabilities. Effect of ICV OA on the hepatic expression of Glc-6-Pase and PEPCK. The potent effects of the central administration of OA on hepatic glucose fluxes prompted us to examine whether changes in the liver mRNA levels of key metabolic enzymes can partly account for these effects. Thus, we next measured the liver abundance of Glc-6-Pase and PEPCK mRNA as a function of 18S ribosomal RNA (FIG. 9d) or β-actin mRNA (not shown) in tissue samples obtained after ICV infusion of either OA or vehicle in caloric restricted and over-fed rats. […]

PEPCK mRNA = assay: Hepatic PEPCK mRNA after ICV OA (northern blot); format: in vivo, rat; conditions: either group (HF55, HF140)
Description: as §1

CPT1L = target: T1, CPT1L (Rattus norvegicus, UniProt P32198); assay: LC-CoA levels in hypothalamic nuclei by HPLC after ICV CPT1 inhibitor; format: in vivo; conditions: ICV administration
T1 construct: from tissue; host or cells: hypothalamus (arcuate nucleus) of male Sprague-Dawley rats, in vivo or ex vivo
T1 sequence (P32198 1-773): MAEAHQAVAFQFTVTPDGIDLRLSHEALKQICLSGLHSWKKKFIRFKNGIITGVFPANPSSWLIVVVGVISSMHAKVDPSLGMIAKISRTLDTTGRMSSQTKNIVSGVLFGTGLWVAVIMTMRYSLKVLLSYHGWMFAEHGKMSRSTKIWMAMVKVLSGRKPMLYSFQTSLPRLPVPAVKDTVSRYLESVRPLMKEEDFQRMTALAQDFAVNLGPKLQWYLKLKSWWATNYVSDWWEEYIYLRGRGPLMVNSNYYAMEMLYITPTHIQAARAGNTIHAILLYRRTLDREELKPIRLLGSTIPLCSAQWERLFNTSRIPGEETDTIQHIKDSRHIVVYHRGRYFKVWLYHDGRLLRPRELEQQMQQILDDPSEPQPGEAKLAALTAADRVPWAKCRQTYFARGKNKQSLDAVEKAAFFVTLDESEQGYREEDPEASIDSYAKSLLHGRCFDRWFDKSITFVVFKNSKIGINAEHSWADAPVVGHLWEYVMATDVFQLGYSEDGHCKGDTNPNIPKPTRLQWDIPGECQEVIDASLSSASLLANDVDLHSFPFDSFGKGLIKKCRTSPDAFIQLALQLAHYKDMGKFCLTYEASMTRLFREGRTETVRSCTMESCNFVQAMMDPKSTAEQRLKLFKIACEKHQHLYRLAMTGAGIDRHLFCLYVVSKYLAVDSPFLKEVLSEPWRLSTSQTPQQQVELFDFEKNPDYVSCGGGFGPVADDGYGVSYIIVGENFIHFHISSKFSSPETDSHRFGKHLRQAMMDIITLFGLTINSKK
Description: Surgical implantation of ICV cannulae was performed on day 1 (˜3 weeks prior to the in vivo study). Full recovery of body weight and food intake was achieved by day 7. Rats randomized for ribozyme treatment received an ICV injection of CPT1L-Ribo, CPT inhibitors or controls on day 17. The experimental group treated with TDGA received ICV injection of the inhibitor on day 21, 6 hr prior to the harvesting of brains. Panels B. and C. show quantitation of CPT1L (B) and CPT1M (C) mRNA by real-time PCR. RNA was purified from individual hypothalamic nuclei (PVN, LHA, and arcuate), which were obtained by micro punch technique 3 days after ICV injection of pTarget control (▪; N=4) or CPT1LRibo (□; N=5). Copy number of CPT1 mRNA is normalized to β-Actin copy number ×10^6. Panels D. and E. show CPT1 activity in individual arcuate nuclei (D) or whole hypothalamus (E). Brains were harvested 6 hr or 3 days […] the ICV injection of TDGA or CPT1L-Ribo respectively, and arcuate nuclei were punched out. CPT1 activity was measured in the particulate fraction of protein extracts from animals treated with ICV control injections (▪; N=6, receiving aCSF+2% DMSO or Control Ribo), TDGA ( ?; N=6), or CPTL-Ribo (□; N=5). Panels F and E establish that ICV administration of CPT1 inhibitors increases levels of LC-CoAs in arcuate. Levels of stearoyl-CoA (F) and oleyl-CoA (E) respectively were measured by HPLC in arcuate of rats injected ICV with control compound (▪; ST1340) or ST1326 (□).
ICV catheters were implanted in male Sprague-Dawley rats by stereotaxic surgery (Obici et al., 2002a; Obici et al., 2001; Liu et al., 1998). The biochemical or molecular analyses, the metabolic or the feeding experiments were performed ˜3 weeks later following complete recovery from the operation (FIG. 2a). CPT1L-Ribo was delivered ICV three days prior to experimental tests (FIG. 2a). […] Thus, we next measured CPT1 activity in ARC and in whole hypothalamus. […]

SMILES	suppression of hepatic Glc-6-Pase mRNA expression (Glc-6-Pase mRNA; HF55 group, ICV OA vs ICV vehicle) [%]	hepatic Glc-6-Pase mRNA expression (Glc-6-Pase mRNA; HF140 group)	liver expression of PEPCK (PEPCK mRNA)	Oleyl-CoA levels in ARC (CPT1L)	stearoyl-CoA levels in ARC (CPT1L)	Other LC-CoAs (CPT1L; data not shown)
CCCCCCCC/C=C\CCCCCCCC(=O)O [OA, oleic acid]	~73	no changes detected	failed to significantly alter	–	–	–
CCCCCCCCCCCCCCNC(=O)N[C@H](CC(=O)[O-])C[N+](C)(C)C [ST1326, (R)-N-(tetradecylcarbamoyl)-aminocarnitine]	–	–	–	marked increase	marked increase	significantly increased
